Experimental data from patent publication US10191050B2, “Rationale, methods, and assays for identifying human and non-human primate taste specific genes and use thereof in taste modulator and therapeutic screening assays” (SENOMYX, INC., priority 2007, dated 2019).

Test system: perceived human salt intensity
Assay: Human salty taste test: effect on perceived salt intensity (experiments by the inventors)
Assay type: in vivo
Source text: Unlike other mammals, amiloride only slightly reduces the intensity of sodium chloride taste, i.e., by about 15-20% when used at concentrations that specifically modulate ENaC function (Halpern, B. P. (1998) Neuroscience and Behavioral Reviews. 23: 5-47). […] Thus, additional non-ENaC genes are likely involved in human salty taste.

| SMILES | effect on perceived human salt intensity (tested at 300-fold above IC50 for alpha beta gamma ENaC (10-fold over IC50 for delta beta gamma ENaC)) | effect on perceived human salt intensity (tested at 3000-fold above IC50 for alpha beta gamma ENaC (100-fold over IC50 for delta beta gamma ENaC)) |
| --- | --- | --- |
| N=C(N)NC(=O)c1nc(Cl)c(N)nc1N [amiloride] | did not elicit a significant effect | – |
| NC(=Nc1ccccc1)NC(=O)c1nc(Cl)c(N)nc1N [phenamil] | – | did not elicit a significant effect |
